According to US8445533B2, “Andrographolide derivatives to treat viral infections” (Cornell Research Foundation, Inc., priority 2004, dated 2013):
Converted amounts (≈) assume the structure as drawn. Like-named read-outs stand apart in the source and are kept apart here.

What was measured:
[1] = tested on: HCV replicon-bearing cells (subgenomic 1b Strain N); experiment: MTT cytotoxicity in HCV replicon cells, subgenomic 1b Strain N; assay type: cell-based, human; settings: 4 days
Procedure: (§1) HCV replicon—SEAP (secreted alkaline phosphatase) cell lines have been described previously. Low passage cell stocks of cell lines stored frozen (−160° C.) were used in the assays. Serial dilutions of test compounds were made from initial stocks and each concentration plated in 96-well plates. Low passage HCV replicon-bearing cells were then trypsinized, counted and seeded into the wells. The plates were incubated at 37° C. in a CO2 incubator for 4 days. The culture supernatant was then removed from each well and heat inactivated for 30 min at 65° C. SEAP activity was measured and EC50 values calculated by comparing SEAP present in drug-treated and untreated wells. Cytotoxicity produced by compounds during screening was evaluated by MTT assay at the end of the incubation period.

[2] = tested on: HCV replicon subgenomic 1b Strain N; experiment: HCV replicon SEAP reporter assay, subgenomic 1b Strain N; assay type: cell-based, hepatitis C virus; settings: 4 days
Procedure: as §1
(§2) Growth medium from each well was aspirated prior to the addition of lysis solution followed by vigorous pipetting. Each lysate was processed using DNase I treatment. Total RNA was eluted into orgainic carbon-free water and converted into cDNA enzymatically.

[3] = tested on: HCV replicon-bearing cells (subgenomic 1a); experiment: MTT cytotoxicity in HCV replicon cells, subgenomic 1a; assay type: cell-based, human; settings: 4 days
Procedure: as §1

[4] = tested on: HCV replicon subgenomic 1a; experiment: HCV replicon SEAP reporter assay, subgenomic 1a; assay type: cell-based, hepatitis C virus; settings: 4 days
Procedure: as §1, §2

tumor cell lines = settings: cited from earlier work
isolated rat hepatocytes = settings: ex vivo isolated rat hepatocytes; cited from earlier work
funin = funin (Homo sapiens, UniProt P09958); settings: cited from earlier work
proprotein convertase-7 = settings: cited from earlier work
proprotein convertase-1 = settings: cited from earlier work
[5] = tested on: P388 lymphocytic leukemia; settings: cited from earlier work
KB = settings: cited from earlier work
[6] = tested on: cytopathogenic isolate of BVDV; experiment: BVDV viral yield assay in woodchuck primary hepatocytes
Source text: (§3) Woodchuck primary hepatocyte cultures and hepatic cell lines were inoculated with a cytopathogenic isolate of BVDV.

in vitro = settings: woodchuck
Source text: as §3

[7] = tested on: cytopathogenic isolate of BVDV; experiment: BVDV antiviral assay in woodchuck hepatic cell line WCH-8
Source text: as §3

HIV-1 (IIIB) = settings: Chang et al. 1991; cited from earlier work
uninfected NCL cells = experiment: Cytotoxicity toward uninfected NCL cells (methylene blue assay); assay type: cell-based, bovine; settings: Example 2B
Procedure: A method to measure visible cell numbers involved staining with methylene blue (Sigma, St. Louis, Mo.) and reading the absorbance of the stain in solution after elution from the cells. […] The methylene blue staining solution was removed from the cultures and the culture plates were rinsed in several volumes of H^2O. […] The absorbance of the methylene blue dye in solution was measured by an ELISA plate reader (Model EL311; Bio-Tek Instruments, Inc., Winooski, Vt.) at 630 nm. In all experiments described, calculation of cell numbers for each experimental data point was expressed as the average of three wells per experimental treatment (dilution, titer, or antiviral concentration).
Three quarters of both cpBVDV infected and uninfected cells were grown in the presence of antiviral compound. […] The medium was changed daily and cell killing was measured by the methylene blue assay 3 days post-infection with BVDV.
Cell killing due either to viral infection or to drug cytotoxicity was calculated for each experimental data point and plotted. […]

WCH-8 cells = experiment: Cytotoxicity in WCH-8 cells
Source text: as §3

[8] = tested on: woodchuck primary hepatocytes; experiment: Cytotoxicity in woodchuck primary hepatocytes
Source text: as §3

cpBVDV isolate NADL = experiment: BVDV antiviral assay in NCL bovine uterine cell line (viral-induced cell killing, viral yield); settings: Example 2B
Procedure: Derivatives of andrographolide were tested in an in vitro assay which measures the antiviral potential against a cytopathogenic isolate of BVDV in a permissive bovine uterine cell line.
The capacity to measure the effectiveness of compounds to reduce BVDV replication in vitro provides a system for preclinical assessment of potential drugs for treatment of viral infection and for analyzing possible mechanisms of action.
Cell lines were incubated in a humid atmosphere of 5% CO2 at 37° C. Cells were passaged by dissociation of the monolayer with a solution of trypsin-EDTA (Life Technologies), diluted in culture medium, and split 1:5 to new culture flasks.
A method to measure visible cell numbers involved staining with methylene blue (Sigma, St. Louis, Mo.) and reading the absorbance of the stain in solution after elution from the cells. […] The methylene blue staining solution was removed from the cultures and the culture plates were rinsed in several volumes of H^2O. The culture plates were allowed to air dry; this was followed by elution of the methylene blue stain from the fixed cells by incubation at controlled room temperature in a solution of PBS/50% ethanol and 1% acetic acid for 1 hour, with agitation. The absorbance of the methylene blue dye in solution was measured by an ELISA plate reader (Model EL311; Bio-Tek Instruments, Inc., Winooski, Vt.) at 630 nm. In all experiments described, calculation of cell numbers for each experimental data point was expressed as the average of three wells per experimental treatment (dilution, titer, or antiviral concentration).
The NCL cell line was grown to confluence and passaged to 96 well microtiter plates (Microtest™ 96; Becton Dickinson Labware, Franklin Lakes, N.J.), at a density of 2×10^4 cells/well (0.34 cm^2) and incubated for 1 hour to allow cell attachment. After attachment, the cells of one-half of each microtiter plate were inoculated with a cpBVDV stock diluted to yield a multiplicity of infection (m.o.i.) of 0.01 TCID50 and incubated for 3-6 hours to allow viral attachment and penetration. Following this incubation period, the inoculum was removed and replaced with fresh growth medium.
Three quarters of both cpBVDV infected and uninfected cells were grown in the presence of antiviral compound. The remaining quarter of the microassay plate served as positive (cpVDV infected) and negative (uninfected) control wells. The medium was changed daily and cell killing was measured by the methylene blue assay 3 days post-infection with BVDV.
The culture medium was collected on day 3 post-infection and the reduction in viral yield after antiviral treatment was determined. Supernatant collected from experimental wells was serially diluted ten-fold and used to infect newly prepared NCL cells. the end-point titer, the last dilution at which complete cell killing was evident, was determined in a similar 96 well format using the methylene blue assay for cell killing 5 days after infection.
Cell killing due either to viral infection or to drug cytotoxicity was calculated for each experimental data point and plotted. Regression analysis (curve fitting) was performed with SigmaPlot4.0 (Jandel Sci, San Rafael, Calif.) using the Regression Wizard library of equations which best fit the collected data.

Chain of funin (P09958 108-794): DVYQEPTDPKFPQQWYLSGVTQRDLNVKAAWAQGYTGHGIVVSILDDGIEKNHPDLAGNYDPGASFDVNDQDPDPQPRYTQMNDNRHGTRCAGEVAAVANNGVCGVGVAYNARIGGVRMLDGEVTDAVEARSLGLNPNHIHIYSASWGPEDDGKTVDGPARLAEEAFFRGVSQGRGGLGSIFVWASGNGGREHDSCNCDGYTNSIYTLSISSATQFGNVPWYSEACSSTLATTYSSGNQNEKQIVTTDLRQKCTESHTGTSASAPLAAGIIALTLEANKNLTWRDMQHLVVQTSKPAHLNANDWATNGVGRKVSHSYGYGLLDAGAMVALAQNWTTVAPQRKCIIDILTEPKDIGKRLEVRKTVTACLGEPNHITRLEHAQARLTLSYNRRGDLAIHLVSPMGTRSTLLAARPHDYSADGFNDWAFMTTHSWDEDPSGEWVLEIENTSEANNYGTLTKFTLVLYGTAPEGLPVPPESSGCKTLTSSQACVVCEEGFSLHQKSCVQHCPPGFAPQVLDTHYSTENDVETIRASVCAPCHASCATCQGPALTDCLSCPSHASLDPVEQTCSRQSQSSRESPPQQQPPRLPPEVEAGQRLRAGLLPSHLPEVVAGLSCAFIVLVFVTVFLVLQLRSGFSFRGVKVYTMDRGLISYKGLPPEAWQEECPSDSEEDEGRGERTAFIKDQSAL

## C[C@@]1(O)[C@H](O)[C@@H](CO)O[C@H]1n1ccc(N)nc1=O [2′-MeC, B-D-2′-methyl-cytidine]
[1]
  IC50: > 100 µM
[2]
  EC50: 25.1 µM
[3]
  IC50: > 100 µM
[4]
  EC50: 61.6 µM

## C=C1CCC2[C@](C)(CC[C@@H](O)[C@@]2(C)CO)C1/C=C/C1=CCOC1=O (some centres unmarked) [14-deoxy-11,12-didehydroandrographolide]
Tumor cell lines
  cytotoxic activity: no cytotoxic activity

## C=C1CC[C@@H]2[C@](C)(CO)[C@H](O)CC[C@@]2(C)[C@@H]1C/C=C1/C(=O)OC[C@H]1O [Andrographolide]
Isolated rat hepatocytes
  protective activity against paracetamol-induced toxicity: protective activity
funin
  enzyme inhibition: relatively little enzyme inhibition
Proprotein convertase-7
  enzyme inhibition: relatively little enzyme inhibition
Proprotein convertase-1
  enzyme inhibition: relatively little enzyme inhibition
[5]
  cytotoxic activity: significant cytotoxic activity
KB
  cytotoxic activity: significant cytotoxic activity

## C=C1CC[C@@H]2[C@](C)(CO[C@@H]3O[C@H](CO)[C@@H](O)[C@H](O)[C@H]3O)CCC[C@@]2(C)[C@@H]1CCC1=CCOC1=O [neoandrographolide]
Tumor cell lines; tumor cell lines
  cytotoxic activity: no cytotoxic activity

## NC(=O)c1ncn([C@@H]2O[C@H](CO)[C@@H](O)[C@H]2O)n1 [ribavirin, reference compound]
[6]
  tEC90: 2.9 µg/mL
In vitro
  CC50: 0.35 µg/mL (≈ 1.43 µM)
[7]; Bovine viral diarrhea virus isolates and strains, in Marmota monax, read-out: ckEC50
  EC50: 0.27 µg/mL (≈ 1.11 µM)

## dehydroandrographolide succinic acid monoester [DASM]
HIV-1 (IIIB)
  minimal concentration inhibitory to HIV-1 (IIIB): 1.6 to 3.1 pg/mL

## interferon-α
[6]
  tEC90: 0.825 µg/mL
Uninfected NCL cells; bovine uterine cell line
  CC50: ≧1000 ng/ml
Uninfected NCL cells; over the range tested
  cytotoxicity, result in words: did not exhibit cytotoxicity over the range tested
WCH-8 cells
  CC50: ≧1000 ng/ml
WCH-8 cells; up to a dose of 1000 ng/ml
  cytotoxicity, result in words: No cytotoxicity was observed
[7]; WCH-8 cells
  ckEC50: 288 ng/mL
  tEC90: 64 ng/mL
[8]
  CC50: ≧1000 ng/ml
[8]; over the range tested
  cytotoxicity, result in words: no cytotoxicity was observed over the range tested
cpBVDV isolate NADL
  concentration range of reduction in viral-induced cell killing: 0.1 to 1000 ng/mL
  maximal reduction in viral-induced cell killing: 80%
  reduction in viral yields: 2 logs
cpBVDV isolate NADL; bovine uterine cell line
  S.I. (CC50/EC90): 6667
  ckEC50: 0.0074 ng/mL
  tEC90: 0.15 ng/mL
cpBVDV isolate NADL; bovine uterine cell line, listed as IFN-α
  tEC90: 150 ng/mL
